A short description of one series: in vitro. The following applies: human, nhek keratinocytes. Type of series: cell-based. The procedure: The 1-(2-benzimidazolyl)-1,5-diazacyclooctane compounds of the present invention show a weak cytotoxicity toward normal human epidermal keratinocytes (NHEK) growth. […] In comparison, the NR50 value of Astemizole is about 4.42 μM.
Series [1] relates to DNP-As-induced bronchoconstriction. The series can be described thus: guinea pig antigen-induced bronchoconstriction model (DNP-As-induced, inhalation of compound). The following applies: 0.01 mg/ml solution, inhalation for 1 minute with ultrasonic nebulizer, DNP-As 100 μg protein/ml, 1 ml/kg, i.v. The class given is in vivo. An excerpt:
In the guinea pig antigen-induced bronchoconstriction model, the 1-(2-benzimidazolyl)-1,5-diazacyclooctane compounds of the present invention also show a potent antiallergic activity and a long-lasting efficacy.

The subject of a further series is bronchial tissues. The following applies: topical formulation applied to the bronchia; cited from earlier work.
For another series, the target named is T1, histamine H1-receptor (Cavia porcellus, UniProt P31389).
T1 construct: histamine H1 -receptor site in guinea pig cerebellum; from tissue; host or cells: guinea pig cerebellum
T1 sequence (P31389 whole entry): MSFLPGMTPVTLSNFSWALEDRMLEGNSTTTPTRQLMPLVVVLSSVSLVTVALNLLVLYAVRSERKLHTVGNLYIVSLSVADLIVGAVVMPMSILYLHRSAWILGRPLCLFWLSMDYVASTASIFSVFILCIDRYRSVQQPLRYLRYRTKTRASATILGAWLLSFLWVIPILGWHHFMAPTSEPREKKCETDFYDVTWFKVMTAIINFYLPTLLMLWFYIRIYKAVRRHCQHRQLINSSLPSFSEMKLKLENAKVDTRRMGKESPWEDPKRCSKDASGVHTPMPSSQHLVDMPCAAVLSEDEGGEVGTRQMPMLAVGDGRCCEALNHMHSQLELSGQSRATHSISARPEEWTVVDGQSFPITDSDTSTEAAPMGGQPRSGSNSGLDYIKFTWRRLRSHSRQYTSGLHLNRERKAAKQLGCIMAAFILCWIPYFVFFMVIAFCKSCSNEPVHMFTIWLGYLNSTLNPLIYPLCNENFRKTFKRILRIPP
In words: receptor binding assay in blocking 3H-pyrilamine binding to histamine H1-receptor site in guinea pig cerebellum. The following applies: read-out: 50% inhibitory activity (concentration producing 50% reduction of the binding of the labeled ligand). An excerpt: The pharmacological activity of the 1-(2-benzimidazolyl)-1,5-diazacyclooctane compounds of the present invention can be confirmed by receptor binding assay in blocking 3H-pyrilamine binding to histamine H1 -receptor site in guinea pig cerebellum. The 1-(2-benzimidazolyl)-1,5-diazacyclooctane compounds of the present invention show a potent histamine H1 -receptor antagonistic activity, and produce a 50% inhibitory activity in a range of about 10^-10 to 10^-8 M (concentration producing 50% reduction of the binding of the labeled ligand).

As usually defined, the CC50 is the concentration at which the toxic effect on the cells reaches its halfway point. A high value points to better tolerance by the cells.

Take `COc1ccc(CCN2CCC(Nc3nc4ccccc4n3Cc3ccc(F)cc3)CC2)cc1` [Astemizole]: the CC50 in the series “in vitro” was around 4.42 µM. Further, in series [1], the “inhibition of DNP-As-induced bronchoconstriction at 4 hours after inhalation” value is “about 37.5%” and the “inhibition of DNP-As-induced bronchoconstriction at 8 hours after inhalation” value was “about 29.3%”. In the series with bronchial tissues, the “irritation to bronchial tissues (in words)” value was “strong irritation to bronchial tissues”.
For `O=C(O)CCc1ccc(CCN2CCCN(c3nc4ccccc4n3Cc3ccc(F)cc3)CCC2)cc1` [Compound 16, 5-[2-[4-(2-Carboxyethyl)phenyl]ethyl]-1-[1-(4-fluorophenylmethyl)-1H-benzimidazol-2-yl]-1,5-diazacyclooctane], on histamine H1-receptor, the IC50 is around 0.000575 µM. The compound also returned a CC50 in the series “in vitro” of around 789 µM. In addition, in series [1], the “inhibition of DNP-As-induced bronchoconstriction at 4 hours after inhalation” value was “about 54.6%” and the “inhibition of DNP-As-induced bronchoconstriction at 8 hours after inhalation” value was “about 44.7%”.

Source of the values: patent US5624948A, “1-(2-benzimidazolyl)-1,5-diazacyclooctane compounds” (Kissei Pharmaceutical Co., Ltd., priority 1993, dated 1997).
